We go through one molecule from EP0906096B1, “USE OF HYDROXYPROLINES FOR THE MANUFACTURE OF A MEDICAMENT FOR INHIBITING LEUKOCYTE INVASION OF TISSUES” (Chephasaar Chem.-Pharm. Fabrik GmbH, priority 1996, dated 1997).

In data set [1] the test system is Carrageenin-Pfotenödem, Adjuvansarthritis, Baumwollgranulom. Briefly: Standard inflammation models (carrageenan paw oedema, adjuvant arthritis, cotton granuloma), histology. In kind it is in vivo. Particulars: short-term and long-term application; histological work-up. For orientation: Carrageenan injected into the paw causes an acute inflammation.
Data set [2] has as its system Granulozyten. Nature of the data set: Adhesion of granulocytes to an endothelial layer (method of Hahne et al. 1993). In kind it is cell-based. The text has this: Gemäß M. Hahne et al. (1993), J. Cell. Biol. 121, 655-664 wurde die IC50-Konzentration von Hydroxyprolinderivaten, die zu einer 50 %igen Reduktion der Adhäsion von Granulozyten an einer Endothelschicht führte, bestimmt. Als besonders wirksam zeigte sich die an R2 acetylierte Verbindung.

In data set [3] the test system is eosinophiles Lungeninfiltrat. Nature of the data set: Acute allergic inflammation: protein-induced eosinophilic lung infiltrate in sensitised guinea pigs. In kind it is in vivo, Meerschweinchen. The text has this:
In Modellen der akuten allergischen Entzündung, wie z.

In data set [4] the test system is Blutplättchen. Nature of the data set: Ex vivo platelet function after oral intake. In kind it is in vivo. Particulars: volunteers, 400 - 800 mg.
Data set [5] relates to ischämisch traumatisiertes Gefäßendothel. Nature of the data set: Post-ischaemia model (Nolte et al. 1995), leukocyte adherence in postcapillary venules. In kind it is in vivo, Hamster. To be noted: 50 mg/kg given 10 min before reperfusion; effect present after 0,5 and 2 hours; in all animals. The protocol:
In dem von Nolte et al., Int. J. Microcirc. 15 (suppl 1) (1995), 9 - 16 beschriebenen Postischämiemodell beim Hamster zeigte sich, dass N-Acetylhydroxyprolin (Oxazeprol) bei Dosierungen von 50 mg/kg kurz yor Reperfusion (10 min) gegeben, die Adhäsion der Leukozyten am ischämisch traumatisierten Gefäßendothel um ca. 50 % reduzierte. Dieser Effekt war nach 0,5 und 2 Stunden vorhanden (Abb. 3). Er trat in allen untersuchten Tieren auf. Oxazeprol verhielt sich damit ähnlich wie Buflomidil (ein PDE4-Hemmer), Iloprostol (ein PhI-Analog) und monoklonale Antikörper gegen Selektine, d.h. N-Acetylhydroxyprolin verhinderte spezifisch die im Gefolge einer Noxe (Ischämie) auftretende Leukozytenadhäsion und -invasion ins Gewebe.

The test system of data set [6] is Granulozyten. Nature of the data set: Ex vivo adhesion of volunteers' granulocytes to endothelia after oral intake. In kind it is in vivo, Menschen. The source says:
Gesunde Probanden erhielten eine einmalige Dosis von N-Acetylhydroxyprolin zum Zeitpunkt 0. Unmittelbar vorher und zu den genannten Zeitpunkten wurde Blut abgenommen und die Leukozyten mit Hilfe der Lymphoprep-Separation (Histoprep, Biologische Arbeitsgemeinschaft GmbH, Lich, Germany) präpariert. Die Adhäsion wurde wie in M. Hahne et al. (1993), J . Cell Biol. 121, 655 - 664 beschrieben bestimmt. Die durch LPS-Stimulation erhöhte Adhäsion ist evident (⌀ im Vergieich zu LPS, Zeitpunkt ⌀).

The subject of data set [7] is Lymphozyten und Monozyten. Nature of the data set: Ex vivo adhesion of volunteers' lymphocytes and monocytes after oral intake. In kind it is in vivo, Menschen. To be noted: 400 - 800 mg.
The mark [8] stands for this setting: ex vivo, volunteers, single or repeated intake of 400 - 800 mg.

As usually defined, the IC50 is the concentration that inhibits the measured activity by half. A high value points to a need for much substance. For the molecule `CC(=O)N1C[C@H](O)C[C@H]1C(=O)O` [N-Acetylhydroxyprolin, N-Acetyl-L-hydroxyprolin], in data set [1], the “Invasion der Granulozyten” value is “deutliche reduzierte Invasion” and the “Invasion von monozytären Leukozyten” value is “kaum verändert”. Moreover, in data set [2] (concentration at which inhibition of granulocyte adhesion is still measurable, unit not given), the “noch meßbar bei” value is 10^-9. This molecule also displayed an IC50 in data set [2] (concentration giving 50 % reduction of granulocyte adhesion to an endothelial layer, unit inferred) of approximately 100 nM. Moreover, the “Einwanderung von Granulozyten” value in data set [3] (late phase) is recorded as “signifikant reduziert”. Besides, the “Einwanderung der eosinophilen Granulozyten” value in data set [3] (sensitised guinea pig, protein-induced) is listed as “keinen meßbaren Effekt”. Further, in data set [4], the “Funktion der Blutplättchen” value is listed as “nicht tangiert”. Further, the “Reduktion der Adhäsion der Leukozyten am ischämisch traumatisierten Gefäßendothel” value in data set [5] was “ca. 50%”. For the same molecule, in data set [6] (setting [8]), the “Adhäsion der Granulozyten an Endothelien” value was “reduzierte Adhäsion” and the “Dauer des Effekts auf die Granulozytenadhäsion” value is recorded as 24 - 48 Stunden. In addition, the “durch LPS-Stimulation erhöhte Adhäsion” value in data set [6] (healthy volunteers, single dose at time 0, after 24 hours (Abb. 2)) is “weitgehend durch N-Acetylhydroxyprolin gehemmt”. Further, in data set [7], the “Effekte auf Lymphozyten und Monozytenadhäsion” value was “verschwanden hingegen nach wenigen Stunden”.
